ChEMBL document CHEMBL4229418, “Design, synthesis and pharmacology of aortic-selective acyl-CoA: Cholesterol O-acyltransferase (ACAT/SOAT) inhibitors” (Bioorg Med Chem, 2018)
The source made the active and inactive calls. No cut-off for these calls is given here.

Tests used:
[1] = biological target: T1, Sterol O-acyltransferase 1 (Rattus norvegicus, UniProt O70536); test: Inhibition of ACAT1 in 1 mg/ml rat liver microsomes
T1 sequence (O70536 whole entry): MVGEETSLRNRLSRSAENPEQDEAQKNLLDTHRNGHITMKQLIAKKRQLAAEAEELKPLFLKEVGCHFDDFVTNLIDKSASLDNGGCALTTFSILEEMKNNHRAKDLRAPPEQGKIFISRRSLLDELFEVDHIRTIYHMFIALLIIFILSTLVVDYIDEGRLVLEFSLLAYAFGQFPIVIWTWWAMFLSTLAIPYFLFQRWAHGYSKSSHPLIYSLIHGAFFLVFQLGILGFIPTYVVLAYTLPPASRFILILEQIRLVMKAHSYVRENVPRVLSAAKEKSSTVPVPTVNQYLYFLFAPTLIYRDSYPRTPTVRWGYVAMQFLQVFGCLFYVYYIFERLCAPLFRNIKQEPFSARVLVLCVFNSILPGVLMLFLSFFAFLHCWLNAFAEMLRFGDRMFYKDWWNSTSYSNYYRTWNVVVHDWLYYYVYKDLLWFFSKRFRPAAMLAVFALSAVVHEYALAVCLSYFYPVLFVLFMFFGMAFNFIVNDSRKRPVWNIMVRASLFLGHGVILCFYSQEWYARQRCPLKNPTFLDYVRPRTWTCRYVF

Hamster [2] = test: Antiatherosclerotic activity in Bio F1B hamster model of diet-induced atherosclerosis assessed as reduction in lipid accumulation areas in aortic arch at 0.3 mg/kg/day added to chow pellets by oil red O staining based assay; assay type: functional, organism-based; settings: Cricetinae
[3] = biological target: T2, Sterol O-acyltransferase 1 (Homo sapiens, UniProt P35610); test: Inhibition of ACAT1 in human monocytes-derived macrophages reduction in cholesteryl oleate formation preincubated for 2 hrs followed by [14C]-oleic acid/BSA/sodium oleate addition measured after 2 hrs by TLC assay
T2 sequence (P35610 whole entry): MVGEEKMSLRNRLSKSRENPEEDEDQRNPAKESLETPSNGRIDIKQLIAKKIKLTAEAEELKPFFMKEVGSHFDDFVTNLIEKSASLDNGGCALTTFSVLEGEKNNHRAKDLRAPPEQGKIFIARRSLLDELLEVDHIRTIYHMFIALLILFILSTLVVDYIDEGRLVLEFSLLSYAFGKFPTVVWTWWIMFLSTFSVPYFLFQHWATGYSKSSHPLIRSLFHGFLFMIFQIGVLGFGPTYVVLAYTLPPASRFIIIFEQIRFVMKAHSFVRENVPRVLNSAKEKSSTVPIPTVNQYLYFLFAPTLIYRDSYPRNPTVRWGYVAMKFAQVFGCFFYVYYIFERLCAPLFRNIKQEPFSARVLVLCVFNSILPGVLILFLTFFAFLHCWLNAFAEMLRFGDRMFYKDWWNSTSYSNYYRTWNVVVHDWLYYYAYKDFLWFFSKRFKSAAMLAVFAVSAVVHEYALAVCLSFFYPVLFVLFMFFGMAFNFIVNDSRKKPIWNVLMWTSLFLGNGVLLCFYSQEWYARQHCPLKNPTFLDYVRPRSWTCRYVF

[4] = biological target: T3, Sterol O-acyltransferase 1 (Mus musculus, UniProt Q61263); test: Inhibition of ACAT1 in mouse J774 cells assessed as reduction in esterified cholesterol accumulation after 18 hrs in presence of 25-hydroxycholesterol; assay type: cell-based
T3 sequence (Q61263 whole entry): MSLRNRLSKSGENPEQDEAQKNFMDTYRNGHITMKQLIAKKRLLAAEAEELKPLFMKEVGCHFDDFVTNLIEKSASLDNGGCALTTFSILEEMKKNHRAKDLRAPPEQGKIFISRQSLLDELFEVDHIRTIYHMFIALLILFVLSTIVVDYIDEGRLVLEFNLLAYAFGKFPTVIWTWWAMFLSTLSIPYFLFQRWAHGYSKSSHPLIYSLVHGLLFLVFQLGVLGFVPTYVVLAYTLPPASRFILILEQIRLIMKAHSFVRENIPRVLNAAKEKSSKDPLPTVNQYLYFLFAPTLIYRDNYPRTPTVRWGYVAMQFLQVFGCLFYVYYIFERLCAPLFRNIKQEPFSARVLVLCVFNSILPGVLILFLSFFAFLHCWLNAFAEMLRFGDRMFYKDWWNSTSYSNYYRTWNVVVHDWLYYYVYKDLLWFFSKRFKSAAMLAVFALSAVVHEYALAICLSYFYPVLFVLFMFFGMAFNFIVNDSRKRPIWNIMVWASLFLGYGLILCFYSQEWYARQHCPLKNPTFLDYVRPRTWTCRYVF

[5] = biological target: T1, Sterol O-acyltransferase 1; test: Inhibition of ACAT1 in 0.2 mg/ml rat liver microsomes
Hamster [6] = test: Toxicity in Bio F1B hamster model of diet-induced atherosclerosis assessed as reduction in total plasma cholesterol at 3 mg/kg/day added to chow pellets relative to control; assay type: organism-based; parameters: scale not given: the % may be the effect or the level left; settings: cricetinae, in vivo
Hamster [7] = test: Toxicity in Bio F1B hamster model of diet-induced atherosclerosis assessed as reduction in total plasma cholesterol at 10 mg/kg/day added to chow pellets relative to control; assay type: organism-based; parameters: scale not given: the % may be the effect or the level left; settings: cricetinae, in vivo
Hamster [8] = test: Antiatherosclerotic activity in Bio F1B hamster model of diet-induced atherosclerosis assessed as reduction in lipid accumulation areas in aortic arch at 10 mg/kg/day added to chow pellets by oil red O staining based assay relative to control; assay type: functional; settings: Cricetinae
[9] = biological target: T3, Sterol O-acyltransferase 1; test: Inhibition of ACAT1 in mouse IC21 cells in presence of BSA; assay type: cell-based
[10] = Cmax in non-fasted Sprague-Dawley rat at 30 mg/kg, po by LC-MS/MS analysis; assay type: ADME, organism-based; parameters: dose 30 mg/kg, route oral; settings: in vivo
[11] = biological target: T3, Sterol O-acyltransferase 1; test: Inhibition of ACAT1 in mouse IC21 cells in absence of BSA; assay type: cell-based
[12] = Inhibition of SOAT1 in arterial homogenates isolated from 1% cholesterol fed New Zealand white rabbit assessed as reduction in cholesteryl oleate formation incubated for 5 mins in presence of [14C]-oleoyl-CoA and BSA complex by TLC method; assay type: tissue-based, Oryctolagus cuniculus
Hamster [13] = test: Antiatherosclerotic activity in Bio F1B hamster model of diet-induced atherosclerosis assessed as reduction in lipid accumulation areas in aortic arch at 1 mg/kg/day added to chow pellets by oil red O staining based assay relative to control; assay type: functional; settings: Cricetinae
[14] = Inhibition of SOAT2 in New Zealand white rabbit intestinal microsomes assessed as reduction in cholesteryl oleate formation incubated for 5 mins in presence of [14C]-oleoyl-CoA and BSA complex by TLC method; parameters: species or system Oryctolagus cuniculus, Intestine
[15] = biological target: T2, Sterol O-acyltransferase 1; test: Inhibition of ACAT1 in human monocytes-derived macrophages reduction in cholesteryl oleate formation preincubated for 2 hrs followed by [14C]-oleic acid/sodium oleate addition measured after 2 hrs in absence of albumin by TLC assay
Hamster [16] = test: Antiatherosclerotic activity in Bio F1B hamster model of diet-induced atherosclerosis assessed as reduction in lipid accumulation areas in aortic arch at 3 mg/kg/day added to chow pellets by oil red O staining based assay relative to control; assay type: functional; settings: Cricetinae
Hamster [17] = test: Toxicity in Bio F1B hamster model of diet-induced atherosclerosis assessed as reduction in total plasma cholesterol at 1 mg/kg/day added to chow pellets relative to control; assay type: organism-based; parameters: scale not given: the % may be the effect or the level left; settings: cricetinae, in vivo
[18] = AUC (0 to 8 hrs) in non-fasted Sprague-Dawley rat at 30 mg/kg, po by LC-MS/MS analysis; assay type: ADME, organism-based; parameters: dose 30 mg/kg, time < 8 hr, route oral; settings: in vivo
[19] = Tmax in non-fasted Sprague-Dawley rat at 30 mg/kg, po by LC-MS/MS analysis; assay type: ADME, organism-based; settings: in vivo
Oryctolagus cuniculus = species: Oryctolagus cuniculus; test: Selectivity ratio of IC50 for inhibition of SOAT2 in New Zealand white rabbit intestinal microsomes to IC50 for inhibition of SOAT1 in arterial homogenates isolated from 1% cholesterol fed New Zealand white rabbit
[20] = Inhibition of rabbit intestinal ACAT2; parameters: species or system Oryctolagus cuniculus
[21] = Drug metabolism in New Zealand white rabbit intestinal microsomes assessed as 2-((6-((2,6-Diisopropylphenyl)amino)-6-oxohexyl)thio)-benzo[d]oxazole-4-carboxylic acid formation after 30 mins; assay type: ADME, Oryctolagus cuniculus, Intestine, microsome; settings: 0.5 h
[22] = Drug metabolism in New Zealand white rabbit intestinal microsomes assessed as -((6-((2,6-Diisopropylphenyl)amino)-6-oxohexyl)thio)benzo-[d]oxazole-7-carboxylic acid formation after 30 mins; assay type: ADME, Oryctolagus cuniculus, Intestine, microsome; settings: 0.5 h

Row | SMILES | IC50 [4] | IC50 [12] | IC50 [14] | Ratio IC50 (Oryctolagus cuniculus) | further results
1 | CC(C)c1cccc(C(C)C)c1NC(=O)CSc1nc2ccccc2s1 | 0.18 µM | 0.031 µM | 0.047 µM | 1.5 | 
2 | Cc1ccc2nc(SCCCCCC(=O)Nc3c(C(C)C)cccc3C(C)C)oc2c1 | 0.4 µM | 0.034 µM | 0.11 µM | 3.2 | 
3 | CC(C)c1cccc(C(C)C)c1NC(=O)CCCCCCCCSc1nc2ccccc2[nH]1 | 0.3 µM | 0.014 µM | 0.031 µM | 2.2 | 
4 | CC(C)c1cccc(C(C)C)c1NC(=O)CCCCCCCCCCCCCCSc1nc2ccccc2s1 | 1.8 µM | 0.088 µM | 0.093 µM | 1.1 | 
5 | COC(=O)c1cccc2oc(SCCCCCC(=O)Nc3c(C(C)C)cccc3C(C)C)nc12 | 0.9 µM | 0.026 µM | 0.81 µM | 31.2 | Drug metabolism [21]: Metabolite_Detected; Drug metabolism [22]: Metabolite_Detected
6 | CC(C)c1cccc(C(C)C)c1NC(=O)CCCCCSc1nc2cc(O)ccc2o1 | 2.8 µM | 0.043 µM | 0.12 µM | 2.8 | 
7 | COC(=O)c1cccc2nc(SCCCCCC(=O)Nc3c(C(C)C)cccc3C(C)C)oc12 | 0.1 µM | 0.032 µM | 0.33 µM | 10.3 | 

Now from value to molecule, other results behind:

Row | IC50 [4] | IC50 [12] | IC50 [14] | SMILES | Ratio IC50 (Oryctolagus cuniculus) | further results
8 | 0.59 µM | 31 µM | 13 µM | CC(C)c1cc(C(C)C)c(CC(=O)NS(=O)(=O)Oc2c(C(C)C)cccc2C(C)C)c(C(C)C)c1 [AVASIMIBE] | 0.4 | IC50 [1]: 12 µM; inhibition (Hamster [2]): Active; IC50 [3]: 4.1 µM; IC50 [5]: 0.7 µM; Activity (Hamster [6]): 25%; Activity (Hamster [7]): 10%; inhibition in vivo at 10 mg/kg/day (Hamster [8]): 0%; IC50 [9]: 0.76 µM; Cmax [10]: 4580 ng/mL; IC50 [11]: 0.06 µM; inhibition in vivo at 1 mg/kg/day (Hamster [13]): 33%; IC50 [15]: 0.025 µM; inhibition in vivo at 3 mg/kg/day (Hamster [16]): 14%; Activity (Hamster [17]): 55%; AUC(0-t) at 8 h [18]: 48100 ng·h/mL; Tmax [19]: 3.3 h
9 | 0.048 µM | 0.024 µM | 0.034 µM | CC(C)c1cccc(C(C)C)c1NC(=O)CCCCCCSc1nc2ccccc2[nH]1 | 1.4 | 
10 | 4.1 µM | 0.041 µM | 0.16 µM | CC(C)c1cccc(C(C)C)c1NC(=O)CCCCCSc1nc2ccncc2o1 | 3.9 | 
11 | 1.7 µM | 0.12 µM | 0.044 µM | CC(C)c1cccc(C(C)C)c1NC(=O)CCCCCCCCCCCCCCSc1nc2ccccc2[nH]1 | 0.4 | 
12 |  | 0.19 µM | 0.03 µM | CCCCCCCCCCC(C)(C)C(=O)Nc1c(OC)cc(OC)cc1OC [CL-976] |  | IC50 [20]: 0.073 µM
13 | 0.46 µM | 0.019 µM | 0.029 µM | CC(C)c1cccc(C(C)C)c1NC(=O)CCCCCCCCCSc1nc2ccccc2[nH]1 | 1.5 | 
14 | 11 µM | 0.045 µM | 0.18 µM | CC(C)c1cccc(C(C)C)c1NC(=O)CCCCCSc1nc2c(CO)cccc2o1 | 4 | 
15 | 1.1 µM | 0.064 µM | 0.074 µM | CC(C)c1cccc(C(C)C)c1NC(=O)CCCCCSc1nc2cc(CO)ccc2o1 | 1.2 | 
16 | 0.35 µM | 0.026 µM | 0.038 µM | CC(C)c1cccc(C(C)C)c1NC(=O)CCCCCSc1nc2ccccc2[nH]1 | 1.5 | 
